Assays:
PDE6D [1] = biological target: T1, PDE6D (Homo sapiens, UniProt O43924); test: T7 phage display competition binding assay (immobilized atorvastatin), PDE6D; parameters: made in house; host or cells: T7 phage amplified in E. coli; conditions: soluble competitor vs atorvastatin-coated affinity matrix; T7 phage displaying human PDE6D
Excerpt: (§1) The T7 phage displaying human PDE6D and CLB2 were obtained following the procedure of WO 01/18234, published Mar. 15, 2001, and U.S. patent applications Ser. No. 10/115,442, “Phage Display Affinity Filter and Forward Screen,” filed Apr. 2, 2002 and Ser. No. 10/214,654, “Uncoupling DNA Insert Propagation and Protein Display,” filed Aug. 7, 2002. […] The phage eluate was then amplified by growth in E. coli and the affinity enrichment procedure was repeated.
(§2) The dissociation constants, Kd's, for the interaction between the pyrrole compounds and the novel targets were obtained following the procedure of the co-pending patent applications U.S. Ser. Nos. 10/115,442, “Phage Display Affinity Filter and Forward Screen,” filed Apr. 2, 2002 and 60/480,587, “Protein Family Profiling Tool and Methods,” filed Jun. 20, 2003.

CLB2 = biological target: T2, CLB2 (Homo sapiens, UniProt P22676); test: T7 phage display competition binding assay (immobilized atorvastatin), CLB2; conditions: soluble competitor vs atorvastatin-coated affinity matrix; T7 phage displaying CLB2
T2 construct: made in house; host or cells: T7 phage amplified in E. coli
T2 sequence (P22676 1-271): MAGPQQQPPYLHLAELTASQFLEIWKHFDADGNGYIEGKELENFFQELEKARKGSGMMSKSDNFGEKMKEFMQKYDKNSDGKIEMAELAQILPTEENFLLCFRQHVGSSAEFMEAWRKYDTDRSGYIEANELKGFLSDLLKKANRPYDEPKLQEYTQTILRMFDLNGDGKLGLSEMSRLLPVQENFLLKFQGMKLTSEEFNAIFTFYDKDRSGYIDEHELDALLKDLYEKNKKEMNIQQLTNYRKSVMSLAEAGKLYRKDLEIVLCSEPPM
Excerpt: as §1, §2

PDE6D [2] = biological target: T1, PDE6D; test: phage-based competition binding screen at 2 μM; parameters: made in house; host or cells: phage; conditions: 2 μM competitor, duplicate
Procedure: Forty-four molecules were screened for PDE6D binding activity in a standard phage-based competition binding assay, as described in co-pending U.S. patent applications Ser. No. 10/115,442, filed 2 Apr. 2002, and Ser. No. 10/406,797 filed on 2 Apr. 2003 (or PCT International Application PCT/US03/10247 filed 2 Apr. 2003). All compounds were screened in duplicate (duplicate sets of bars) at a concentration of 2 μM.

HMG-CoA reductase = biological target: T3, HMG-CoA reductase (Homo sapiens, UniProt P04035); test: enzymatic activity-based HMG-CoA reductase assay; type: biochemical; conditions: concentrations up to 4 μM
T3 sequence (P04035 1-888): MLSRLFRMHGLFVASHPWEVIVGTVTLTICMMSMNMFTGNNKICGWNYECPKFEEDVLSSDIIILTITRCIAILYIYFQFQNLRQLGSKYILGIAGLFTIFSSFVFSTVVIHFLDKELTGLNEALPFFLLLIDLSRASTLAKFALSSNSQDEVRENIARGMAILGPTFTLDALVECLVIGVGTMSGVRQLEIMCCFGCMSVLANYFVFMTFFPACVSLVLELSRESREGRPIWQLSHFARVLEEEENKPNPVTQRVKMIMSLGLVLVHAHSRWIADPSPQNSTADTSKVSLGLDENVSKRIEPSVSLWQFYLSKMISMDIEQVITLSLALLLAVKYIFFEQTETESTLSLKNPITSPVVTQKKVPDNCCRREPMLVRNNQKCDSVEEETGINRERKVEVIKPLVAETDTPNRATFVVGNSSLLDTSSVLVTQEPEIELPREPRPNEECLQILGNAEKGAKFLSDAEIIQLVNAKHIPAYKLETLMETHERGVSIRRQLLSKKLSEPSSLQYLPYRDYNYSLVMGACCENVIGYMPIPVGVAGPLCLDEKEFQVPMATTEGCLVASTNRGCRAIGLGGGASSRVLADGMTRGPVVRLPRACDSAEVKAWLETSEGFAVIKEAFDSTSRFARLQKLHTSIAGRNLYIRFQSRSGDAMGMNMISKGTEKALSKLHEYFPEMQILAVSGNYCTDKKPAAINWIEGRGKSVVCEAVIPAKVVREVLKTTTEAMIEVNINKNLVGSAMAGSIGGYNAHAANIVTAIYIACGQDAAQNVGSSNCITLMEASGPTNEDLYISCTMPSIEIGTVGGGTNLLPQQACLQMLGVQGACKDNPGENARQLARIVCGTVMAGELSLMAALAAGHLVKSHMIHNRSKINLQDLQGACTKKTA
Procedure: In addition, compounds 781430, 781066, 780780, 780754, 779974, 781456, 782236, 782756, 783250 and 780520 were tested in enzymatic activity-based HMG-CoA reductase assays. […] Blank cells indicate there was no detectable interaction while the “nd” designation indicates the Kd was not determined.

Structure (SMILES)	Kd (PDE6D [1])	Kd (CLB2)	fraction of PDE6D-displaying phage bound to immobilized atorvastatin (screen outcome) (PDE6D [2])	inhibition of the activity of HMG-CoA reductase (HMG-CoA reductase)
CC(C)c1c(C(=O)Nc2ccccc2)c(-c2ccccc2)c(-c2ccc(F)cc2)n1Cc1ccccc1 [Compound 780000]	598 nM	–	–	–
CCOC(=O)CCn1c(-c2ccc(F)cc2)c(-c2ccccc2)c(C(=O)Nc2ccccc2)c1C(C)C [Compound 780026]	6550 nM	–	–	–
CC(C)c1c(C(=O)Nc2ccccc2)c(-c2ccccc2)c(-c2ccc(F)cc2)n1CCN1CCOCC1 [Compound 780052]	387 nM	6000 nM	–	–
CC(C)c1c(C(=O)Nc2ccccc2)c(-c2ccccc2)c(-c2ccc(F)cc2)n1CCO [Compound 780078]	488 nM	2340 nM	–	–
CC(C)c1c(C(=O)Nc2ccccc2)c(-c2ccccc2)c(-c2ccc(F)cc2)n1C [Compound 780104]	114 nM	6070 nM	candidate lead compounds	–
CC(C)c1c(C(=O)Nc2ccccc2)c(-c2ccccc2)c(-c2ccc(F)cc2)n1CCCN1CCCC1=O [Compound 780520]	44 nM	1850 nM	candidate lead compounds	none of the tested compounds inhibited
CC(C)c1c(C(=O)Nc2ccccc2)c(-c2ccccc2)c(-c2ccc(F)cc2)n1CC(=O)OC(C)(C)C [Compound 780546]	880 nM	–	–	–
CC(C)c1c(C(=O)Nc2ccccc2)c(-c2ccccc2)c(-c2ccc(F)cc2)n1CCOCCO [Compound 780598]	300 nM	–	–	–
CC(C)c1c(C(=O)Nc2ccccc2)c(-c2ccccc2)c(-c2ccc(F)cc2)n1[C@H](C)C(=O)OC(C)(C)C [Compound 780650]	–	2100 nM	–	–
CC(C)c1c(C(=O)Nc2ccccc2)c(-c2ccccc2)c(-c2ccc(F)cc2)n1CCCCCO [Compound 780676]	61 nM	1890 nM	candidate lead compounds	–
CC(C)c1c(C(=O)Nc2ccccc2)c(-c2ccccc2)c(-c2ccc(F)cc2)n1CCCCCCO [Compound 780702]	114 nM	2000 nM	–	–
CC(C)c1c(C(=O)Nc2ccccc2)c(-c2ccccc2)c(-c2ccc(F)cc2)n1CCCCCCC(=O)O [Compound 780728]	350 nM	1650 nM	–	–
CC(=O)NCCn1c(-c2ccc(F)cc2)c(-c2ccccc2)c(C(=O)Nc2ccccc2)c1C(C)C [Compound 780754]	58 nM	1830 nM	–	none of the tested compounds inhibited
CC(C)c1[nH]c(-c2ccccc2)c(-c2ccccc2)c1C(=O)Nc1ccccc1 [Compound 780858]	60 nM	1640 nM	candidate lead compounds	–
COCC(C(O)c1ccccc1)n1c(-c2ccc(F)cc2)c(-c2ccccc2)c(C(=O)Nc2ccccc2)c1C(C)C (centres unmarked) [Compound 780910]	280 nM	1000 nM	–	–
CCC(C)C(CO)n1c(-c2ccc(F)cc2)c(-c2ccccc2)c(C(=O)Nc2ccccc2)c1C(C)C (centres unmarked) [Compound 780936]	141 nM	3000 nM	–	–
COc1ccc(-c2[nH]c(C(C)C)c(C(=O)Nc3ccccc3)c2-c2ccccc2)cc1 [Compound 780988]	430 nM	6000 nM	–	–
CCCCCn1c(-c2ccc(F)cc2)c(-c2ccccc2)c(C(=O)Nc2ccccc2)c1C(C)C [Compound 782366]	805 nM	–	–	–
CC(C)c1c(C(=O)Nc2ccccc2)c(-c2ccccc2)c(-c2ccc(F)cc2)n1CC[C@@H]1C[C@H](CC(=O)O)OC(C)(C)O1 [Compound 782964]	685 nM	9000 nM	–	–
CC(C)c1c(C(=O)Nc2ccccc2)c(-c2ccccc2)c(-c2ccc(F)cc2)n1CCS(=O)O [Compound 783666]	–	1850 nM	–	–
CC(C)c1c(C(=O)Nc2ccccc2)c(-c2ccccc2)c(-c2ccc(F)cc2)n1CC(O)CC(=O)O (centres unmarked) [Compound 783770]	1100 nM	335 nM	–	–

From patent US7323490B2, “Pyrrole compounds and uses thereof” (Ambit Biosciences Corporation, priority 2003, dated 2008)
